Read-outs that look alike come from different tables or passages of the source.
How the values were obtained:
Assay type in all cases: cell-based, rat
PC-12 cells = assay: Subcellular localization of FITC-labeled peptide and colocalization with furin, confocal microscopy; details: 1 and 100 μM
Description: Two peptides of interest were FITC-labeled (Anaspec) to follow their interiorization on PC-12 cells (rat pheochromocytoma cells): L-Bel1 (SEQ ID NO. 3) and D-9Rac/am (SEQ ID NO. 15). After observation of L-Bel1-FITC conjugate interiorization, a monoclonal antibody for furin endoprotease was used for colocalization studies by confocal microscopy analysis.
PC-12 cells were resuspended in Dulbecco's modified Eagle's medium (DMEM) high glucose (Gibco BRL, Life Technologies) containing 6% decomplemented horse serum, 6% decomplemented fetal bovine serum, supplemented with 25 U/ml penicillin-streptomycin-I-glutamine. Cells were seeded at 3×10^4 cells/well (200 μl), on 8-well microscope slide chamber (BD Biosciences), previously coated with collagen I (Roche Diagnostics) solution (0.0007%). After an overnight incubation at 37° C. in 5% CO2, cells were washed twice using fresh medium without serum, and then incubated in the presence or absence of the peptide, for the indicated time. […]
The fluorescent images were obtained by confocal laser scanning microscope (Zeiss LSM 510) with lasers of argon (488 nm), helium-neon 1 (543 nm), and enterprise (364 nm); connected to an inverted fluorescence microscope (Zeiss Axiovert 100 M), equipped with a 63×/1.4 PL APO chromate objective lens.

PC12 cells = assay: Inhibition of [3H]norepinephrine neurosecretion by PC12 cells; details: for inhibition of secretion, stability test: 100 μM
Method: Using the neurosecretion assay described above, peptides fused to the TAT-PTD (L-TAT) were tested for inhibition of neurotransmitters and compared to use of L-TAT alone (SEQ ID NO: 3). In vitro screening for synthetic peptides capable of efficiently and selectively blocking neurotransmitter release in the PC12 cell line grown under defined conditions was performed.
PC12 cells were washed with DMEM-WM (Dulbecco's Modified Eagle Medium (GIBCO cat. no. 31968) completed with 25 units of penicillin and streptomycin each) and loaded for 1-2 h with [^3H] norepinephrine (NE; 0.5 μCi/ml) in DMEM-CM (DMEM-WM complemented with 6% horse serum and 6% fetal calf serum). Cells were washed for 1 h with DMEM-WM, and then washed 2 times at 5-minute intervals. Basal release was determined by a 15-minutes incubation with CaSB-glucose 5 mM K^+ (CaSB-glucose: 140 mM NaCl, 5 mM KCl, 2 mM CaCl2, 11 mM glucose, [pH 7.4]). The peptides were added to the cells at defined concentrations after loading with NE but before induction of secretion. Cells were depolarized with 85 mM K^+ (CaSB-glucose with Na^+ reduced accordingly) for 15 minutes to determine stimulated release. Superfusate (1 ml) was removed to tubes. Adherent cells were solubilized in CaSB-glucose-0.1% Triton (1 ml/well). The quantities of released and non-released radiolabeled neurotransmitter were determined by liquid scintillation counting of cleared superfusates and cell lysates, respectively. Total uptake was calculated by addition of released and retained radioactivity, and the percentage release was as calculated (released counts/total uptake counts)×100. Results were also expressed as percent inhibition of neurosecretion.

lung fibroblasts = assay: Stressed collagen lattice contraction assay; details: peptide 60 minutes before gel release; compared to control gels and L-9K treated gels; preliminary

N=C(N)NCCC[C@H](NC(=O)CNC(=O)[C@H](Cc1ccc(O)cc1)NC(=O)CN)C(=O)N[C@@H](CCCCN)C(=O)N[C@@H](CCCCN)C(=O)N[C@@H](CCCNC(=N)N)C(=O)N[C@@H](CCCNC(=N)N)C(=O)N[C@@H](CCC(N)=O)C(=O)N[C@@H](CCCNC(=N)N)C(=O)N[C@@H](CCCNC(=N)N)C(=O)N[C@@H](CCCNC(=N)N)C(=O)NCC(=O)O [L-Tat]
internalization of FITC-labeled peptide (PC-12 cells): crosses the basal membrane | dose dependence of inhibition of neurosecretion (PC12 cells): dose dependent inhibition | inhibition of secretion, stability test (PC12 cells; 0 hours): 50% | inhibition of secretion, stability test (PC12 cells; 1 hour): 38% | inhibition of secretion, stability test (PC12 cells; 24 hours): 35% | inhibition of secretion, stability test (PC12 cells; 48 hours): 39% | inhibition of secretion, stability test (PC12 cells; No Serum): 65% | dose dependence of inhibition of neurosecretion (PC12 cells; listed as L-Bel1): dose dependent | inhibition of PC12 neurotransmitter secretion (PC12 cells; peptide 10 μM): >20% | inhibition of PC12 neurotransmitter secretion (PC12 cells; peptide 50 μM): 50% | inhibition of PC12 neurotransmitter secretion (PC12 cells; peptide 100 μM): 55% | inhibition of PC12 neurotransmitter secretion (PC12 cells; peptide 100 μM, listed as L-Bel1): more than 60% | inhibition of PC12 neurotransmitter secretion (PC12 cells; peptide 250 μM): 70% | myofibroblast-mediated collagen gel contraction (lung fibroblasts): decrease

From patent US8318898B2, “Synthetic peptides for use as inhibitors of neurotransmitter secretion and as inducers of cellular relaxation” (Universite de Lausanne, priority 2005, dated 2012)
